Laboratory results as given in paper PMC11405833, “Targeted sulfur(VI) fluoride exchange-mediated covalent modification of a tyrosine residue in the catalytic pocket of tyrosyl-DNA phosphodiesterase 1” (Communications Chemistry, 2024).
Read-outs that look alike come from different tables or passages of the source. One block for each compound: values may come before it.

Legend:
[1] = molecular target: T1, recombinant full-length TDP1 (Homo sapiens, UniProt Q9NUW8); set-up: was incubated for 15 min. with recombinant full-length TDP1 or TDP1^Y204F (40 pM); method as in PMID 31199869; conditions: reported data; cited from earlier work
T1 sequence (Q9NUW8 whole entry): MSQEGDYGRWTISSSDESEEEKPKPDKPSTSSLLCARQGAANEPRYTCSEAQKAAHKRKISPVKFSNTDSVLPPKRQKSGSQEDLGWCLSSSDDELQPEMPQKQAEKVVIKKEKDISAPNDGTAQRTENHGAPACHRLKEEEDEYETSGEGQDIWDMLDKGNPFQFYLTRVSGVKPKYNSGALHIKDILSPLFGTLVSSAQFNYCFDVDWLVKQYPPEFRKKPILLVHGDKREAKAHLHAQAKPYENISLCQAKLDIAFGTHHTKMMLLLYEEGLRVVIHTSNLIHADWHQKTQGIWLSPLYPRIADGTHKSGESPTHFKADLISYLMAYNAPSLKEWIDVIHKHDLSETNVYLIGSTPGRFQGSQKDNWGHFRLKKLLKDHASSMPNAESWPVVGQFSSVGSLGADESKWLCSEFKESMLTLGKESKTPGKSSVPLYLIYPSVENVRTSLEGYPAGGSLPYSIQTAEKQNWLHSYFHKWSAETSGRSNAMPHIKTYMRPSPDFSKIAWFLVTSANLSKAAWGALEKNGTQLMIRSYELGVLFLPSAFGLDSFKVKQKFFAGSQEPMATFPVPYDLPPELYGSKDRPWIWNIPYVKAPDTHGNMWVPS

[2] = molecular target: T1, recombinant full-length TDP1; assay: gel-based TDP1 fluorescence assay in vitro (wild-type TDP1)
Method: The inhibition of TDP1 or TDP1^Y204F was also conducted using a gel-based assay as previously described[13],[14]. Briefly, the DNA substrate (1 nM, 5′Cy5-[sequence]-pY-3′, Cy5-N14Y) was incubated for 15 min. with recombinant full-length TDP1 or TDP1^Y204F (40 pM) in the absence or presence of inhibitors for 5 min. or 3 hr preincubation time as shown in Table 1 at room temperature (22 °C) in TDP1 reaction buffer (50 mM Tris HCl, pH 7.5, 80 mM KCl, 2 mM EDTA, 1 mM DTT, 40 µg/mL BSA and 0.01% Tween-20). […] Samples were then subjected to a 20% denaturing PAGE gel following by gel scanning using a Typhoon FLA 9500 scanner (GE Healthcare). The IC50 values of TDP1 inhibitors were calculated by comparing the percentage of cleavage product (5′Cy5-[sequence]-p-3′, Cy5-N14P) to DMSO control.

TDP1^Y204F = molecular target: T2, TDP1^Y204F (Homo sapiens, UniProt Q9NUW8, Y204F); assay: gel-based TDP1 fluorescence assay in vitro (mutant TDP1 Y204F); assay type: biochemical
T2 construct: was incubated for 15 min. with recombinant full-length TDP1 or TDP1^Y204F (40 pM)
T2 sequence (Q9NUW8 whole entry Y204F): as the sequence (Q9NUW8 whole entry) above, with Y204F counted along it
Method: The inhibition of TDP1 or TDP1^Y204F was also conducted using a gel-based assay as previously described[13],[14]. Briefly, the DNA substrate (1 nM, 5′Cy5-[…]-pY-3′, Cy5-N14Y) was incubated for 15 min. with recombinant full-length TDP1 or TDP1^Y204F (40 pM) in the absence or presence of inhibitors for 5 min. or 3 hr preincubation time as shown in Table 1 at room temperature (22 °C) in TDP1 reaction buffer (50 mM Tris HCl, pH 7.5, 80 mM KCl, 2 mM EDTA, 1 mM DTT, 40 µg/mL BSA and 0.01% Tween-20). […] Samples were then subjected to a 20% denaturing PAGE gel following by gel scanning using a Typhoon FLA 9500 scanner (GE Healthcare). The IC50 values of TDP1 inhibitors were calculated by comparing the percentage of cleavage product (5′Cy5-[…]-p-3′, Cy5-N14P) to DMSO control.

TDP1(148-608) = molecular target: T3, TDP1(148-608) (Homo sapiens, UniProt Q9NUW8); assay: intact mass LC-MS analysis of covalent modification; assay type: binding; conditions: 50 μM compound, overnight 25 °C, 1:65 enzyme/compound
T3 construct: The recombinant TDP1(148-608) (2 μg) in 50 μL of buffer
T3 sequence (Q9NUW8 148-608): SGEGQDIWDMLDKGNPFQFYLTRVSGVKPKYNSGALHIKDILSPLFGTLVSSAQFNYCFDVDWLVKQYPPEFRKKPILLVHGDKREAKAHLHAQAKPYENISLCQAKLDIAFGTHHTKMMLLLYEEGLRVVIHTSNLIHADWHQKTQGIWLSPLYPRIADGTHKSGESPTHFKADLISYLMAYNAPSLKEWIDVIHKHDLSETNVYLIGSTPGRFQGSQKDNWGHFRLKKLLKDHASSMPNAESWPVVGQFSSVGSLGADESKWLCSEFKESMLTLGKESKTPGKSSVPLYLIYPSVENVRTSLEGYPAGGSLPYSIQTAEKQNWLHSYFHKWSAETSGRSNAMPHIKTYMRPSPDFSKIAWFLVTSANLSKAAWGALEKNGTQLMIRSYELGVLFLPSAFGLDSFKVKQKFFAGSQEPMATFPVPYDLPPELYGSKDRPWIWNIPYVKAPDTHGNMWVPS
Method: The samples were incubated overnight at 25 °C with shaking at 500 rpm. The samples were diluted with water to 100 μL and analyzed by liquid chromatography coupled online with mass spectrometry (LC-MS)[67]. Separation was performed on a Vanquish Flex chromatographic system (Thermo) using a MabPac reversed-phase column (4 μm, 1500 Å, 3 ×50 mm, Thermo) maintained at 50 °C. The labeled proteins were resolved at 0.5 mL/min over a 15 min gradient of buffer B (47.5% acetonitrile, 47.5% isopropanol, 5% water, 0.2% formic acid (FA)) from 2 to 100% followed by re-equilibration at 2% buffer B (total run time 20 min) against buffer A (5% acetonitrile, 0.2% FA in water). The eluates from the column were introduced to an Exactive Plus EMR mass spectrometer (Thermo) through a heated electrospray ionization (HESI) source. Intact mass spectra were acquired over 500-2000 m/z window at 35,000 FT resolution (at 200 m/z), averaging 10 microscans, with an AGC target of 3 ×10^6, max injection time of 200 ms, 80% S-lens RF level, 20 V source-induced dissociation, and capillary temperature set at 275 °C. The resulting spectra were manually averaged followed by deconvolution using the ReSpect algorithm in BioPharma Finder 2.0 (Thermo). […]

[3] = TDP1 IC50, pre-incubation time 5 min with wild-type (WT) TDP1

Compound: O=C(O)c1cnc2ccccc2c1O [Compound 1a]
IC50 [1]: 7.2 mM

IC50 [2]: 4.61 ± 0.35 mM
Compound: O=C(O)c1c[nH]c2c(S(=O)(=O)O)cccc2c1=O [Compound 2a]

IC50 [2]: > 9 mM
Compound: O=C(O)c1c[nH]c2c(S(=O)(=O)Nc3ccccc3)cccc2c1=O [Compound 2b]

IC50 [2]: > 9 mM
Compound: O=C(O)c1c[nH]c2c(S(=O)(=O)NCCc3ccccc3)cccc2c1=O [Compound 2c]

IC50 ([2]; read-out: TDP1 IC50, WT TDP1, dash = no activity up to highest tested concentration): > 9 mM
Compound: O=C(O)c1c[nH]c2c(S(=O)(=O)NCCCc3ccccc3)cccc2c1=O [Compound 2d]

IC50 [2]: 5.17 ± 0.14 mM
Compound: O=C(O)c1c[nH]c2c(-c3ccccc3)cccc2c1=O [Compound 3a]

Compound: O=C(O)c1c[nH]c2c(-c3cccc(OS(=O)(=O)F)c3)cccc2c1=O [Compound 3d]
IC50 [2, 3]: 0.69 ± 0.04 mM

Compound: O=C(NCCc1ccccc1)c1ccc(-c2cccc3c(=O)c(C(=O)O)c[nH]c23)c(OS(=O)(=O)F)c1 [Compound 3g, 8-(2-((fluorosulfonyl)oxy)-4-(phenethylcarbamoyl)phenyl)-4-oxo-1,4-dihydroquinoline-3-carboxylic acid]
IC50 (TDP1^Y204F): 4.69 ± 1.26 mM
fold reduced inhibitory potency with mutant TDP1^Y204F vs WT (TDP1^Y204F; 5 min pre-incubation): 11 fold
mass shift of single covalent modification of TDP1(148-608) (loss of fluorine) (TDP1(148-608)): +490.83 Da
fold increase in inhibitory potency relative to parent compound 3c [2]: 5 to 10 fold
fold increase in inhibitory potency compared with quinolone 1a ([2]; 5 min pre-incubation, WT TDP1, vs 1a IC50 7.2 mM): 18 fold
fold increase in TDP1 inhibitory potency compared to quinolone 3a ([2]; 5 min pre-incubation, WT TDP1, vs 3a IC50 5.17 mM): 13 fold
IC50 [2, 3]: 0.41 ± 0.07 mM
IC50 ([2]; TDP1 IC50, pre-incubation time 3 h with WT TDP1): 0.27 ± 0.03 mM
fold enhancement of IC50 by extending pre-incubation time from 5 min to 3 h ([2]; WT TDP1): 1.5 fold
